Experimental data published in patent US9150581B2, “Nicotinic receptor compounds” (priority 2011, dated 2015).
Values joined by “and” are separate entries in the source; they are usually repeats but may differ in a detail not shown here. Equal values may be shown once. Where a name gives a salt, the structure may show the parent alone. Read-outs that look alike come from different tables or passages of the source.

Experiments:
Male Sprague-Dawley rats [1] = format: in vivo, rat; settings: for Nicotine-like discriminative stimulus effects: compound alone (FIG. 3); for Shift of discriminative stimulus dose-effect curve of small dose of nicotine: small training dose of nicotine
Method: A drug discrimination assay was performed to measure the relevant effects of nicotine as it influences tobacco use and abuse. In a drug discrimination assay, food restricted rates are trained to make one response (select one of two nose-poke apertures in the test chamber) following administration of a particular drug, and a different response (select the other aperture) following administration of saline. The appropriate response is followed by delivery of food, and there is no cue as to which aperture will result in food delivery other than the presence or absence of the drug. Once trained, the animals respond on the “drug-associated” aperture following drug administration and on the “saline-associated” aperture following saline administration. In addition, administration of drug doses that are smaller than the training dose produce intermediate responses on the drug-associated aperture such that monotonically increasing dose-response curves can be generated in drug discrimination assays.
Male Sprague-Dawley rats were obtained from Harlan, Inc (Indianapolis, Ind.) and singly housed in polycarbonate cages with water continuously available. All rats weighed approximately 280-290 gms at the start of the experiment. A food-restricted diet of Purina rodent food allowed the animals to grow but maintain motivation to respond to earn food pellets. A 12 hr light-dark cycle turned the lights on at 7:00 am. Standard operant conditioning chambers (ENV-008, Med-Associates, St Albans, Vt.) were used for establishing and evaluating the nicotine discrimination. Each chamber contains two nose-poke devices with apertures containing yellow LED lights on either side of a dipper capable of delivering 50 μl of fluid into a third opening.
Initially, each rat was trained to insert its nose into one of the apertures and received vanilla-flavored Ensure as a consequence. During discrimination training, rats designated in the small dose group were injected with either saline or 0.32 mg/kg of nicotine. Ten consecutive responses on the appropriate lever (one side following saline administration; the other side following nicotine administration) was followed by presentation of the Ensure for 10 s, followed by a 10 s timeout. Selection of the incorrect lever, and completion of the 10 consecutive responses in this lever results in a 10 s timeout. Criteria for learning the discrimination are 1) responding on the first FR of the session is completed on the injection appropriate aperture; 2) >85% of the total session responses are made on the injection-appropriate aperture.
Each session was divided into several components of 25 min duration. Following an injection, the first five minutes of each component were black out, and the stimulus lights were illuminated for the remaining 20 min, during which injection-appropriate responses were reinforced.
One to four components comprised daily sessions Animals were injected with saline or nicotine prior to the start of the session, or following one or more of the […] components. Possible injection conditions were (S=saline, N=nicotine) S—S—S—S; N; S—N; S—S—N; S—S—S—N. Nicotine administration is always given in the final component if it is given at all.
If a potential antagonist was given, it was administered prior to the session at a time determined by earlier studies to be sufficient for peak effects to be established. The session components then comprised increasing doses of nicotine, each given before consecutive blackout periods. No more than two antagonist sessions were given each week, and once each month a nicotine dose-response curve was determined to assure no changes in sensitivity to nicotine. Full generalization to the nicotine discriminative cue is defined by >85% responding on the drug-associated aperture and completing at least one FR.
A second, large-nicotine trained group of rats were treated in an identical manner except that their training dose of nicotine is 1.78 mg/kg. […]

Male Sprague-Dawley rats [2] = settings: for Blockade of nicotine's hypertensive effects: given prior to 1.78 mg/kg nicotine, RTI-154 10 mg/kg, DHβE 5.6 mg/kg
Method: Male Sprague-Dawley rats (approximately 300 g) were obtained from Harlan, Inc. (Indianapolis, Ind.) and group-housed upon arrival. Food and water were freely available for all rats at all times. Housing and experimental rooms were maintained on a 12 h light/dark cycle with lights on at 7:00 AM with an average temperature of 21° C.
Surgical Procedures. To measure changes in heart rate and mean arterial pressure, rats were implanted with telemetric transmitters (TA11PAC40 or TL11M2-C50-PXT, Data Sciences International, Transoma Medical Inc., St. Paul, Minn., USA) under ketamine (90 mg/kg, i.p.) and xylazine (10 mg/kg, i.p.) anesthesia. An incision is made in the skin approximately 1 in to the left or right of the spine and over the left or right thigh to expose the femoral artery. The transmitter is placed into the incision on the dorsal side and into a subcutaneous pocket (made by separating the connective tissue between the skin and muscle) on the side of the abdomen. This positioning prevents the rats from manipulating the incision site and gaining access to the transmitter. The catheter extending from the base of the transmitter is threaded subcutaneously, placed 3 cm into the femoral artery, and secured with suture. Incisions were closed with 5.0 Ethicon nylon monofilament suture. Following surgery, rats were singly-housed and monitored for at least 7 days for signs of recovery (normal eating, drinking, and defecating patterns) prior to experimentation. All rats continued to have free access to food and water at all times.
Telemetry System. The system consists of battery-operated transmitters surgically implanted (described above), Physiotel® receivers, the DSI Data Exchange Matrix, and the Dataquest A.R.T. system, which collects and stores digital data from the receiver onto a computer (Data Sciences International, Transoma Medical Inc., St. Paul, Minn., USA). Blood pressure and heart rate data were analyzed by the Dataquest A.R.T. Gold Analysis 3.01 software.
At the start of an experiment, rats' home cages were placed on top of the receivers, and baseline data was collected for at least 1 h to allow heart rate and blood pressure to return to resting levels. All rats were given a saline injection to ensure that they are habituated to the injection and handling procedure on the test day. After heart rate and blood pressure returned to resting levels again, rats were injected with a treatment, consisting either of a single drug dose or a pretreatment drug administered 15 min prior to a test drug. Data was collected for at least 2 h following the last injection. All injections were administered subcutaneously (s.c.) in a volume of 1 ml/kg.
Each rat was used to evaluate multiple experimental conditions, such that each rat may receive as many as 4-6 different treatments, one per week with at least 6 days between drug exposures. […] Once the rats weigh approximately 450 g (body weight at time of transmitter implant: 300-350 g), the rat is no longer used for experiments, and the transmitter is removed.
Data were collected throughout baseline, before, and after drug treatments. The analysis program calculated an average heart rate and mean arterial pressure (MAP) every 10 sec. These 10 secepochs are then averaged over 1 min per rat, and data from at least 6 rats were averaged for each treatment group.

mice [3] = experiment: Hot-plate test (antinociception); format: in vivo, mouse; settings: @ 10 mg/kg, sc
Method: (§1) In the tail-flick method of D'Amour and Smith, (D'Amour, F. E.; Smith, D. L. J. Pharmacol. Exp. Ther. 1941, 72, 74-79), the tail is exposed to a heat lamp and the amount of time taken for the animal to move (flick) its tail away from the heat is recorded. […] Mice were placed into a 10-cm wide glass cylinder on a hot plate (Thermojust Apparatus) maintained at 55.0° C. Two control latencies at least 10 min apart were determined for each mouse. […] The reaction time was scored when the animal jumped or licked its paws. The mice were tested 5 min after subcutaneous (sc) injections of nicotinic ligands for the dose-response determination. Antinociceptive response was calculated as percentage of maximum possible effect (% MPE, where % MPE=[(test−control)/(maximum latency−control)×100]).

α4β2 nAChR = α4β2 nAChR (Rattus norvegicus (Rat), UniProt P09483+P12390); experiment: Inhibition of [3H]epibatidine binding at the α4β2 nAChR in male rat cerebral cortex; settings: αβ [3H]Epibatidine (Ki, nM)
α4β2 nAChR, sequence (P09483 31-630 limits assumed): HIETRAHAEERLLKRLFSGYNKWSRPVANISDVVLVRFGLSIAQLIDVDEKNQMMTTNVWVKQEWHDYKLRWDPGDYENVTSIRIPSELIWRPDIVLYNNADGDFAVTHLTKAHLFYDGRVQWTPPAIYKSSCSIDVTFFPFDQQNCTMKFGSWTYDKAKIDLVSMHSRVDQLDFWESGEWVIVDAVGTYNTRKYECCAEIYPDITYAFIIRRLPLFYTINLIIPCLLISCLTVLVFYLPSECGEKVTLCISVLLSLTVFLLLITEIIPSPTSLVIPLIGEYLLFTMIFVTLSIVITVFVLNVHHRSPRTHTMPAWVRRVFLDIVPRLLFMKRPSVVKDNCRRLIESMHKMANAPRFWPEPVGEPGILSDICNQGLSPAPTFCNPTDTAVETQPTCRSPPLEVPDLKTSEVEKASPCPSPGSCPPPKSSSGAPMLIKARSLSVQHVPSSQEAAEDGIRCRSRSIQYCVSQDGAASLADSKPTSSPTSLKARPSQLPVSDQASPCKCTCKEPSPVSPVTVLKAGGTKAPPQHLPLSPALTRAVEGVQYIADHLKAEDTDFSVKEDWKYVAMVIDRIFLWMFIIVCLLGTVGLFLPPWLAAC
α4β2 nAChR, sequence (P12390 25-500 limits assumed): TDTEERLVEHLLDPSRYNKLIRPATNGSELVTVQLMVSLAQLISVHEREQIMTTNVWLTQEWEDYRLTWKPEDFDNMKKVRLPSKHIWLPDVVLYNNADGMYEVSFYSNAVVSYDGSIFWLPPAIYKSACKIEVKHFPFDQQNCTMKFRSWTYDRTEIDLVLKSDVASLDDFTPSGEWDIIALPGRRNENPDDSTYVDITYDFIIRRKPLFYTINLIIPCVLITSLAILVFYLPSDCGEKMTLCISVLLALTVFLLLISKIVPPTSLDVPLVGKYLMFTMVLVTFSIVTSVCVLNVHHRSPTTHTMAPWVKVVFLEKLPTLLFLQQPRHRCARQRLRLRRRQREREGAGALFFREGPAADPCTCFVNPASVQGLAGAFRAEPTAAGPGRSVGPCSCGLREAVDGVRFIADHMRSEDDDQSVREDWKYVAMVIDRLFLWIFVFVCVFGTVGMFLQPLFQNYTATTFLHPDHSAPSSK

mice [4] = experiment: Antagonism of nicotine antinociception, tail-flick; format: in vivo, mouse; settings: mice pretreated sc 10 min before nicotine 2.5 mg/kg sc
Method: as §1
(§2) Nicotine was administered at a dose of 2.5 mg/kg, sc (an ED84 dose), and mice were tested 5 min later. ED50 and AD50 values with 95% confidence limits were determined.

mice [5] = experiment: Antagonism of nicotine antinociception, hot-plate; format: in vivo, mouse; settings: for AD50 Hot-Plate: mice pretreated sc 10 min before nicotine 2.5 mg/kg sc; for Antagonism Hot-Plate, % at dose: before nicotine 2.5 mg/kg sc
Method: as §1, §2

mice [6] = experiment: Spontaneous activity (photocell activity cages); format: in vivo, mouse; settings: sc
Method: (§3) Interruptions of the photocell beams (two banks of eight cells each) were then recorded for the next 10 min. Data were expressed as number of photocell interruptions. Rectal temperature was measured by a thermistor probe (inserted 24 mm) and digital thermometer (Yellow Springs Instrument Co., Yellow Springs, Ohio). […] The difference in rectal temperature before and after treatment was calculated for each mouse. The ambient temperature of the laboratory varied from 21 to 24° C. from day to day.

mice [7] = experiment: Hypothermia (rectal temperature); format: in vivo, mouse; settings: @ 10 mg/kg, sc
Method: as §3

mice [8] = experiment: Tail-flick test (antinociception); format: in vivo, mouse; settings: @ 10 mg/kg, sc
Method: as §1

Male ICR adult mice = format: in vivo, mouse; settings: mouse, in vivo
[9] = listed as (±)-154, hydrochloride

Clc1ccc(C2CC3CCC2N3)cn1 (single isomer, unassigned; (-)) [(−)-epibatidine, epibatidine]
Nicotine-like discriminative stimulus effects (Male Sprague-Dawley rats [1]): extremely potent full nicotine-like agonist | Effect on blood pressure (Male Sprague-Dawley rats [2]; rats, s.c., compound alone): substantial increases in blood pressure

CO[C@H]1CC=C2CCN3CCC4=C(CC(=O)OC4)[C@]23C1 [DHβE, dihydro-beta-erythroidine]
Effect on rate-decreasing effects of nicotine (Male Sprague-Dawley rats [1]): did not antagonize | Shift of discriminative stimulus dose-effect curve of small dose of nicotine (Male Sprague-Dawley rats [1]): parallel rightward shifts | Shift of large dose-nicotine dose-response curve (Male Sprague-Dawley rats [1]; training dose of nicotine 1.78 mg/kg): much less robust rightward shifts | Blockade of nicotine's hypertensive effects (Male Sprague-Dawley rats [2]; rats): did not block | Cardiovascular effects (heart rate and mean arterial pressure) (Male Sprague-Dawley rats [2]; rats, s.c., compound alone): no cardiovascular effects | Effect on blood pressure (Male Sprague-Dawley rats [2]; rats, s.c., compound alone): no changes in blood pressure

CNC1(C)C2CCC(C2)C1(C)C (stereo not drawn) [Mecamylamine, mecamylamine]
Effect on rate-decreasing effects of nicotine (Male Sprague-Dawley rats [1]): parallel rightward shift | Shift of discriminative stimulus dose-effect curve of small dose of nicotine (Male Sprague-Dawley rats [1]): rightward and downward shift

Fc1ncc(C2CC3CCC2N3)cc1-c1ccc(C(F)(F)F)cc1 (stereo not drawn) [RTI-7527-153, 2-(5-(4-Trifluoromethane-phenyl)-6-fluoro-pyridin-3-yl)-7-aza-bicyclo[2.2.1]heptane hydrochloride]
Hot-Plate, % effect at dose (mice [3]): 6% @ 10 | Ki (α4β2 nAChR): 0.44 ± 0.05 nM | AD50 Tail-Flick (mice [4]): 38 µg/kg | AD50 Hot-Plate (mice [5]): 6 mg/kg | Spontaneous Activity, % effect at dose (mice [6]; @ 10 mg/kg): 5% @ 10 | Hypothermia, % effect at dose (mice [7]): 0% @ 10 | Tail-Flick, % effect at dose (mice [8]): 4% @ 10

CS(=O)(=O)c1ccc(-c2cc(C3CC4CCC3N4)cnc2F)cc1 (stereo not drawn) [RTI-7527-154, 2-(5-(4-Methanesulphonyl-phenyl)-6-fluoro-pyridin-3-yl)-7-aza-bicyclo[2.2.1]heptane hydrochloride]
Effect on rate-decreasing effects of nicotine (Male Sprague-Dawley rats [1]): did not, however, alter the potency of nicotine | Effect on rates of responding (Male Sprague-Dawley rats [1]; compound alone): did not suppress ongoing rates of responding | Nicotine-like discriminative stimulus effects (Male Sprague-Dawley rats [1]): no efficacy | Blockade of nicotine's hypertensive effects (Male Sprague-Dawley rats [2]; rats): did not block | Cardiovascular effects (heart rate and mean arterial pressure) (Male Sprague-Dawley rats [2]; rats, s.c., compound alone): no cardiovascular effects | Blockade of development of nicotine-induced CPP (Male ICR adult mice): totally blocked | Preference or aversion induced by compound itself in CPP (Male ICR adult mice): did not induce significant preference or aversion | Ki (α4β2 nAChR): 0.17 nM and 0.08 nM | Antagonism Hot-Plate, % at dose (mice [5]; @ 5000 μg/kg): 40% @ | AD50 Hot-Plate (mice [5]): 2.6 mg/kg | Spontaneous Activity, % effect at dose (mice [6]; @ 5 mg/kg): 0% @ 5; | Hypothermia, % effect at dose (mice [7]; [9]): 1% @ 10 and 1.2% @ 10 | Tail-Flick, % effect at dose (mice [8]; [9]): 6% @ 10 and 5% @ 10

N#Cc1ccc(-c2cc(C3CC4CCC3N4)cnc2F)cc1 (stereo not drawn) [RTI-7527-155, 2-(5-(4-Cyano-phenyl)-6-fluoro-pyridin-3-yl)-7-aza-bicyclo[2.2.1]heptane hydrochloride]
Hot-Plate, % effect at dose (mice [3]): 18% @ 10 | Ki (α4β2 nAChR): 0.19 ± 0.012 nM | AD50 Tail-Flick (mice [4]): 6 µg/kg | Antagonism Hot-Plate, % at dose (mice [5]; @ 10000 μg/kg): 24% @ | Spontaneous Activity, % effect at dose (mice [6]; @ 10 mg/kg): 0% @ 10 | Hypothermia, % effect at dose (mice [7]): 0% @ 10 | Tail-Flick, % effect at dose (mice [8]): 4% @ 10

CN1CCCC1c1cccnc1 (stereo not drawn) [nicotine]
Effect on blood pressure (Male Sprague-Dawley rats [2]; rat, in vivo, sc): substantial increases in blood pressure

α-conotoxin AUIB
Blockade of development of nicotine reward in the CPP test (Male ICR adult mice): blocked the development of nicotine reward
